The structures appear in SMILES notation.

The nature of assay [1]: Skin temperature by thermal camera after application of creams on the back. In kind it is in vivo, human. As to conditions: 1% in cream. As to the method: For this study, the cooling effect of 5 compositions containing different cooling agents is evaluated in vivo according to the following protocol.
22 female subjects aged from 18 to 63 were selected. On the back of each subject, between the two scapulas, six areas of 3 cm×2.5 cm are delimited. On 5 areas chosen each time randomly, 15 mg of the compositions to be tested are applied. Nothing is applied onto the sixth area (i.e. control).
From the time of application of the creams (T0), the skin temperature of the different zones is measured on each subject using a thermal camera (Thermovision SC6000HS (Flirsystems)—resolution 640×512—frequency 125 Hz) at the following times: T0, T0+15 s, T0+30 s, T0+45 s, T0+1 min, T0+1 min30 s, T0+2 min, T0+3 min, T0+4 min, T0+5 min, T0+6 min, T0+8 min and T0+10 min. The measurements are performed at 21° C.±1.5° C., the subject lying on their stomach and motionless. The temperatures are measured with an accuracy of around 0.10° C.
A variance test (ANOVA) is used to compile and validate the results. […]
If these two conditions are met, the statistical analysis allowing comparing the parameters measured at the different times is conducted by a one-factor variance analysis (ANOVA) test on repeated measurements. […]

Assay [2] is described as follows: Cooling effect of creams rated on a 0 to 3 scale after application onto the forearms. As to conditions: 1% in cream, forearm sensory score. The format is in vivo, human. As to the method:
To measure the cooling effect, 100 mg of one of the creams 1 to 4 or of a placebo are applied onto the inner side of both forearms of persons who have agreed to test the product. After one minute, each participant is asked to rate the cooling effect on a scale of 0 to 3 (i.e. score), with 3 being the maximum effect.
Each cream (including the placebo) is applied randomly and blindly to the forearms of 17 people.

As for `Cc1coc2c1C(=O)CC(C)C2` (stereo not drawn) [evodone, 6-dimethyl-6,7-dihydro-5H-1-benzofuran-4-one], in assay [1], the “Cooling effect compared with menthyl lactate, citriodiol or cubebol” value is on record as “cooling effect similar to that which can be provided by molecules such as menthyl lactate”. In assay [2], the “Cooling effect compared with citriodiol or cubebol” value is “cooling effect similar to that which can be provided by molecules such as citriodiol or cubebol” and the “Cooling effect compared with menthyl lactate (Frescolat ML)” value is reported as “significantly greater than that obtained with menthyl lactate”.

Values taken from patent US12133909B2, “Use of evodone or a derivative thereof as a cooling agent” (ROBERTET S.A., priority 2019, dated 2024).
